Results: patent US20250064957A1, “EXATECAN DERIVATIVES, LINKER-PAYLOADS, AND CONJUGATES AND THEREOF” (priority 2021, published 2025)

Legend:
Assay type in all cases: cell-based
[1] = tested on: high HER2 tumor cell line SK-BR-3; test: Effect of small molecules on SK-BR-3 cell proliferation (CellTiter-Glo); conditions: SK-BR-3, 120 h incubation, relative biological activity with Dxd as control sample
Procedure: Study Purpose: In this experiment, cell viability was detected using CellTiter-Glo to evaluate the effects of the small molecule compounds on the proliferation of a high HER2 tumor cell line SK-BR-3, and to analyze the effects of the small molecule compounds on the proliferation of tumor cells.
• (1) Microscopic examination of cells • (2) Digestion: digested using 2 mL 0.25% trypsin for 3 minutes; • (3) Centrifuge: 1000 rpm for 5 min; • (4) Cell counting • A. Cell dilution: • B. Cell plating: in 100 μl/well • C. Incubation: 37° C., 5% CO2, overnight
• (1) Microscopic examination • (2) Drug preparation: • A. Preparation of Buffer for preparation of samples: the desired amount of Buffer for preparation of samples was prepared using the culture medium (10% FBS) for the testing cells; • B. Sample preparation: the sample was diluted from the first concentration to the desired concentration in a 96-well deep-well Plate.
Positive control Puromycin: A stock solution of 2.5 mg/ml was used, and diluted with the cell medium. A dilution of 250-fold was preformed, and then a dilution of 2-fold was preformed when applying the compounds to reach the testing concentration 5 μg/ml for puromycin. • (3) Application of the compounds: for each concentration of the diluted series, the compound was applied in triplicate. In 100 μl/well. • (4) After the drug was added, the cells were incubated in the incubator for 120 h.
• (1) Preparation of detection reagents: CellTiter-Glo Luminescent Cell Viability Assay detection reagent was allowed to warm to room temperature with protection from light • (2) Cell preparation: The cells to be tested were taken out from the incubator and equilibrated at room temperature (25° C.) 30 min. • (3) ATP detection: Discard the culture medium and 100 μl/well DMEM was added, 50 μl/hole CTG was added into 96-well plate, protected from light using aluminum foil and oscillated using a vortex oscillator at room temperature of 200 rpm for 10 min. • (4) Detection procedure: After setting up the procedure, the black-wall clear-bottom plate was placed in the instrument without its cover. • (5) Data acquisition.
GraphPad software was used to process the data. […] If necessary, the relative biological activity of sample A, i.e., ratio activity was calculated. Dxd was used as the control sample for the ratio activity calculation.
Cell proliferation inhibition rate (%)=([…])/(luminescence value of blank control group−luminescence value of puro group)×100; wherein the puro group refers to the group treated with puromycin
R^2 Value ≥0.950; CV % between parallel pores ≤30%.

[2] = tested on: NCI-N87 HER2-high cell line; test: Effect of HER2-targeting conjugates on cell proliferation (CellTiter-Glo), NCI-N87; conditions: NCI-N87, 120 h
Procedure: (§1) Study Purpose: Cell viability was detected by CellTiter-Glo assay to evaluate the effects of the ADCs on the proliferation of two high HER2 tumor cell lines SK-BR-3, NCI-N87 and a HER2-negative tumor cell line MDA-MB-468, and to analyze the effects of the ADCs on the proliferation of tumor cells.
(§2) Positive control Puromycin: A stock solution of 10 mg/ml was used, and diluted with the cell medium. A dilution of 100-fold was preformed, and then a dilution of 10-fold was preformed when applying the compounds to reach the testing concentration 5 μg/ml for puromycin. • (4) Application of the compounds: for each concentration of the diluted series, the compound was applied in triplicate. […]

[3] = tested on: SK-BR-3 HER2-high cell line; test: Effect of HER2-targeting conjugates on cell proliferation (CellTiter-Glo), SK-BR-3; conditions: SK-BR-3, 120 h
Procedure: as §1, §2

Row | SMILES | Ratio activity (%) [1] | IC50 [2] | IC50 [3]
1 | CC[C@@]1(O)C(=O)OCc2c1cc1n(c2=O)Cc2c-1nc1cc(F)c(Br)c3c1c2[C@H](NC(=O)C[C@H](C)O)CC3 [C600] | 0.62% |  | 
2 | CC[C@@]1(O)C(=O)OCc2c1cc1n(c2=O)Cc2c-1nc1cc(F)c(Br)c3c1c2[C@H](NC(=O)C[C@@H](C)O)CC3 [C602] | 0.29% |  | 
3 | CC[C@@]1(O)C(=O)OCc2c1cc1n(c2=O)Cc2c-1nc1cc(F)c(Cl)c3c1c2[C@@H](NC(=O)[C@H](O)C(F)(F)F)CC3 [C626] | 0.54% |  | 
4 | CC[C@@]1(O)C(=O)OCc2c1cc1n(c2=O)Cc2c-1nc1cc(F)c(Cl)c3c1c2[C@@H](NC(=O)CCCO)CC3 [C679] | 0.49% |  | 
5 | CC[C@@]1(O)C(=O)OCc2c1cc1n(c2=O)Cc2c-1nc1cc(F)c(Cl)c3c1c2[C@H](N)CC3 [C731] | 0.82% |  | 
6 | CC[C@@]1(O)C(=O)OCc2c1cc1n(c2=O)Cc2c-1nc1cc(F)c(C)c3c1c2[C@@H](NC(=O)CO)CC3 [Dxd] | 1% | 4.68 nM | 1.47 nM
